Like-named read-outs stand apart in the source and are kept apart here.

In series [1] the target is T1, IvoA (Emericella nidulans, UniProt C8V7P4).
T1 construct: The full-length wild-type IvoA and mutants were expressed in S. cerevisiae JHY686 strain; octahistidine (His8) (N); made in house; host or cells: Saccharomyces cerevisiae JHY686
Briefly: Biocatalytic stereoinversion or deracemization of tryptophan and substituted tryptophans by IvoA (chiral-HPLC). Type of series: biochemical, Aspergillus nidulans. The conditions noted are these: for ee (%): ee of D-enantiomer, 1.5 mM substrates, 5 μM IvoA, 5 mM ATP, 10 mM MgCl2, 100 mM K2HPO4 buffer, pH 7.5. The method, then:
[…] The solvent was removed in vaccuo by speedvac and the residue was dissolved in ethanol and analyzed by chiral-HPLC by using a Crownpak® CR(+) column (150 mm×4 mm×3.5 μm, Daicel) at room temperature. The mobile phase was aq. HClO4 1% (w/v) supplemented with 15% (v/v) MeOH and the flow rate was 1.0 ml/min.

For series [2], the target named is T2, IvoA A domain (Emericella nidulans, UniProt C8V7P4, S785A).
T2 construct: The full-length wild-type IvoA and mutants were expressed in S. cerevisiae JHY686 strain; octahistidine (His8) (N); made in house; host or cells: Saccharomyces cerevisiae JHY686
T2 sequence (C8V7P4 whole entry S785A): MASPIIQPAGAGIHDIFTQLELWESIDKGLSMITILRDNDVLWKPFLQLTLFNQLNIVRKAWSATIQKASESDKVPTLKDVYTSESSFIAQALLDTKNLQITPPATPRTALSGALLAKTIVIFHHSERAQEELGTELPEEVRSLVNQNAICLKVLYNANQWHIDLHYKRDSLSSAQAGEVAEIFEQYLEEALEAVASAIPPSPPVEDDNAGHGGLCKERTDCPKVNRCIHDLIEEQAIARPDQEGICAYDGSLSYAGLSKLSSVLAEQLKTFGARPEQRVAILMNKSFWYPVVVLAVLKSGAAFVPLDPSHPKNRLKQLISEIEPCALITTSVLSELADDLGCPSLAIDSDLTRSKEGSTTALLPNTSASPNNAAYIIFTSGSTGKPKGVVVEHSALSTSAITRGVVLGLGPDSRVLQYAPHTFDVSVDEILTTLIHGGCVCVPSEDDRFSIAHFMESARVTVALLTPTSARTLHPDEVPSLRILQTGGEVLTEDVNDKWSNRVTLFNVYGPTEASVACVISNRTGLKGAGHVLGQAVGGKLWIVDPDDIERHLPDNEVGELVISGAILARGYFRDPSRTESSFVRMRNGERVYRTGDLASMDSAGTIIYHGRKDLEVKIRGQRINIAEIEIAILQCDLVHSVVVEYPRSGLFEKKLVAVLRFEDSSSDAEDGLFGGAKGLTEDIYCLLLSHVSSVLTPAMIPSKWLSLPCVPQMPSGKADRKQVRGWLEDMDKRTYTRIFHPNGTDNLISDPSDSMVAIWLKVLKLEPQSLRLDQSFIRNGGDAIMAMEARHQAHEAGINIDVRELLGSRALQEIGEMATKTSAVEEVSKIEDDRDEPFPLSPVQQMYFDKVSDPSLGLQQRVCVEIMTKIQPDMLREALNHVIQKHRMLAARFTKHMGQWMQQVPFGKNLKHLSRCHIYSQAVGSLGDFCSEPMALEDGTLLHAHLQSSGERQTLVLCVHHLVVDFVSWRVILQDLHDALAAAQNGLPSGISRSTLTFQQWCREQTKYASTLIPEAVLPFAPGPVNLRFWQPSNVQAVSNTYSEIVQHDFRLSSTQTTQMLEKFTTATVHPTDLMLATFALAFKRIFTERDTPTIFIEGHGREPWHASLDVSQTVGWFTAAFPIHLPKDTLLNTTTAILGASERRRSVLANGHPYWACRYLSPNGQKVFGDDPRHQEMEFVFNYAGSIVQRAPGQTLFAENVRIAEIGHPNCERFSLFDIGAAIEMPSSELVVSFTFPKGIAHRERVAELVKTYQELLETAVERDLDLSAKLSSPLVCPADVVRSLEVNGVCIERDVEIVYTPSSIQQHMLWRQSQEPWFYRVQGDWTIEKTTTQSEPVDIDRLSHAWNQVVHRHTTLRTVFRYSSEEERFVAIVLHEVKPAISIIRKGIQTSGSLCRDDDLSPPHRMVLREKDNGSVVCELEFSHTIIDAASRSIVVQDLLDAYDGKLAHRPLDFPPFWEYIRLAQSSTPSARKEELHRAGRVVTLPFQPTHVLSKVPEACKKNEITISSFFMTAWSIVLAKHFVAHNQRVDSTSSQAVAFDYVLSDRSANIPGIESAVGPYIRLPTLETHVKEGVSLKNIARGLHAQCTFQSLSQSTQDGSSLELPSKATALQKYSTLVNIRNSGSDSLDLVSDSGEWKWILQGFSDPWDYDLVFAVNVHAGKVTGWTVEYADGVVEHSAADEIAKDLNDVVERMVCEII
The experiment in a line: Hydroxylamine-based colorimetric adenylation assay. Type of series: biochemical, Aspergillus nidulans. The method, then:
FIG. 9 provides data showing Hydroxylamine-based colorimetric assay for studying substrate specificity of IvoA A domain. The reaction condition is 2 μM of IvoA-T^0+3 mM of ATP+0.1 mM of carboxylic acid substrate+15 mM hydroxylamine+15 mM MgCl2 in Tris buffer (pH 8.0). The reaction is quenched after 3 hrs by addition of equivalent volume (150 μL) of stopping solution (10% (w/v) FeCl3.H2O and 3.3% (w/v) trichloroacetic acid dissolved in 0.7 M HCl). The precipitated enzyme was removed by centrifugation and the supernatant was measured for its absorbance at 540 nm.
FIG. 19 provides data showing Adenylation assay of IvoA A domain with substituted tryptophan amino acids. The reaction was performed similarly according to the assay described in the caption of FIG. 9.

For series [3], the target named is T3, IvoA-C (Emericella nidulans, UniProt C8V7P4).
T3 construct: were incubated with standalone IvoA C domain at pH 6.9; hexahistidine (His6) with TEV protease site (N); made in house; host or cells: E. coli BL21(DE3)
T3 sequence (C8V7P4 1325-1477): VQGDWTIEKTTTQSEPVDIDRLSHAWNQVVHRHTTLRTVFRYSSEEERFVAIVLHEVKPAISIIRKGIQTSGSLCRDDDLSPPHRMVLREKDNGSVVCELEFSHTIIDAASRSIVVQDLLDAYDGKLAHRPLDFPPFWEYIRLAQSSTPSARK
Briefly: Thioesterase assay of standalone IvoA-C with synthetic thioester substrates. Type of series: biochemical, Aspergillus nidulans. As to conditions: pH 6.9, boiled enzyme control. The method, then:
FIG. 17 provides data and associated schematics for an In vitro assay of IvoA-C with synthetic thioester substrates. Synthetic thioester substrates (DL-tryptophan-S—N-acetylcysteamine, DL-Trp-SNAC: D-tryptophan-S-pantatheine, D-Trp-pant) were incubated with standalone IvoA C domain at pH 6.9. Enzymes were boiled to measure the nonenzymatic hydrolysis. Free tryptophan and tryptophanyl thioesters were separated by HPLC.
The thioesterase activity assay of standalone IvoA-C was performed in ammonium acetate buffer (20 mM, pH=6.9). Typically, 5 mM synthetic substrate (5% DMSO) was incubated with 50 μM enzyme. The reaction was analyzed by HPLC. Boiled enzyme was used as control to measure the background nonenzymatic hydrolysis.

Series [4] can be described thus: Apparent steady-state kinetics of L-tryptophan stereoinversion by IvoA and mutants (chiral-HPLC quantification of D-tryptophan). As to conditions: for kcat^app / Km: L-tryptophan stereoinversion; for Km: read-out: Km^app. Type of series: biochemical, Aspergillus nidulans. The method, then:
FIG. 11 provides data showing the Apparent steady-state kinetics of IvoA catalyzed stereoinversion. […] The kinetic constants were shown in the main text. For WT, 1 μM enzyme was used in each assay and the reaction was quenched after 2 min. For E0 mutant, 10 μM enzyme was used in each assay and the reaction was quenched after 60 min. For C0 mutant, 50 μM enzyme was used in each assay and the reaction was quenched after 60 min.
Chiral-resolution allowed us to determine the apparent steady-state kinetics by quantifying D-tryptophan formation (Table 1, FIG. 11). […] Both E and C domains are catalytically important for IvoA, as inactivating either domain by mutating the catalytic histidine residues (H963A and H1428A) substantially compromised the apparent turnover number kcat (420-fold by E^0 while 4700-fold by C^0).
The ATP-dependent stereoinversion activity was typically performed with 2-5 μM IvoA, 1 mM L/D-tryptophan, 3 mM ATP and 10 mM MgCl2 in 100 mM phosphate buffer (pH 7.5), and the reaction was quenched by mixing with 5-volume of methanol. The solvent was removed in vaccuo by speedvac and the residue was dissolved in ethanol and analyzed by chiral-HPLC by using a Crownpak® CR(+) column (150 mm×4 mm×3.5 μm, Daicel) at room temperature. The mobile phase was aq. HClO4 1% (w/v) supplemented with 15% (v/v) MeOH and the flow rate was 1.0 ml/min.

For series [5] the following is noted: enzyme >50 μM, overnight incubation.
Experimental: The reaction condition is 100 μM of IvoA+2 mM of ATP+1 mM of L-tryptophan+1 mM of AcCoA+5 mM MgCl2 in phosphate buffer (pH 7.5).
Acetyltryptophan acetyltransferase activity was performed by incubating 1-100 μM IvoA with 1 mM D-tryptophan or other substrates with 1 mM acetyl-CoA or 1 mM acetyl-phosphate in 100 mM phosphate buffer (pH 7.5). The reaction mixture was incubated at room temperature and the reaction was quenched at different time interval by mixing with 5-fold volume of methanol. The mixture was clarified by centrifugation to remove protein and salts, and the supernatant was dried in vaccuo by using speedvac. The residue was dissolved in methanol and subjected to LC-MS analysis. For ATP-dependent acetyltransferase activity, 1 mM LD-tryptophan, 5 mM ATP, 1 mM CoA and 5 mM MgCl2 were used.

T1 sequence (C8V7P4 other isoform, or with tags, fused parts or gaps): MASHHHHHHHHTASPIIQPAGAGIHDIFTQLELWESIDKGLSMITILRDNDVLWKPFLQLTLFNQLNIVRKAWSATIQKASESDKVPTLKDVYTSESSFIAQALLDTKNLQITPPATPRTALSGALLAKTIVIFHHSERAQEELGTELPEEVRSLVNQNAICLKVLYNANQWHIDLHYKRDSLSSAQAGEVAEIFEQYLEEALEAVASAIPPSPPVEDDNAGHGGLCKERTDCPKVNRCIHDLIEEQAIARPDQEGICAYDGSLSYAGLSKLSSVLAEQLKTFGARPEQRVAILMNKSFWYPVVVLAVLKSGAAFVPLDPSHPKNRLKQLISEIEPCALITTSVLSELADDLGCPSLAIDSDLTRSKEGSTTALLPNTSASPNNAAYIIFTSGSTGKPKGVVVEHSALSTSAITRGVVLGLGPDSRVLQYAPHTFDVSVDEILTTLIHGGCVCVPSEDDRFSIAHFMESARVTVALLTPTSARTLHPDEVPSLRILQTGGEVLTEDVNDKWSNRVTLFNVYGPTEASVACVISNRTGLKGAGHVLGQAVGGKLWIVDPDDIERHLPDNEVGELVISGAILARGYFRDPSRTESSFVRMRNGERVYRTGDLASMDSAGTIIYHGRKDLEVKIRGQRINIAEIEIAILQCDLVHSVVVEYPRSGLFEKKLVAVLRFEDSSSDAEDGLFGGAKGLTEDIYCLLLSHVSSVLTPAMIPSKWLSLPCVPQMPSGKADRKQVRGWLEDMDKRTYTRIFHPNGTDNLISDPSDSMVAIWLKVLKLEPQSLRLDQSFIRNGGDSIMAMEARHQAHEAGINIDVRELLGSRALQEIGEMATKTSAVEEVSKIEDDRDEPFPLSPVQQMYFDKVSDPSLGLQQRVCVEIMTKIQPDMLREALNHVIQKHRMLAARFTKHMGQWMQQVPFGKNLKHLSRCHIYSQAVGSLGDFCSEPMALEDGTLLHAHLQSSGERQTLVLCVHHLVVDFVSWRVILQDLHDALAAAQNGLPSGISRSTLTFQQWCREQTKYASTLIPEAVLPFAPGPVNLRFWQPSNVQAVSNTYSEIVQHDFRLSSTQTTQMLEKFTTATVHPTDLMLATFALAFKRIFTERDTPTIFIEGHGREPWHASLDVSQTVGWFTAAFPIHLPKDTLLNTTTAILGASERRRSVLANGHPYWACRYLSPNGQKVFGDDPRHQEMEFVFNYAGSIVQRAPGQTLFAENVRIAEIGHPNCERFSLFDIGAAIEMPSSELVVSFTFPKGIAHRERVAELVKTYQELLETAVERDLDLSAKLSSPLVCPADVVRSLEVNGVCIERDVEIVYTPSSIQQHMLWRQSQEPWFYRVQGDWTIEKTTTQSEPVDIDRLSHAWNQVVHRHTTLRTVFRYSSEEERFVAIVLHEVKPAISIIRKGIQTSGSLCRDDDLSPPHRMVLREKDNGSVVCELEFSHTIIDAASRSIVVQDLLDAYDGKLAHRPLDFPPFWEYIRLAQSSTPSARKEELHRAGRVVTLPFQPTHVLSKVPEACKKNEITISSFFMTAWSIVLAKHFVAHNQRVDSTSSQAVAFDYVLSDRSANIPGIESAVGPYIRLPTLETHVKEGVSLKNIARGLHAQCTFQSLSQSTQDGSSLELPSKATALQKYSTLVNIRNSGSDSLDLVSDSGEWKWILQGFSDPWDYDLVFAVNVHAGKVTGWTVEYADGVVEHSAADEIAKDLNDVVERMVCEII

As to `Cc1ccc2[nH]cc(CC(N)C(=O)O)c2c1` (stereo not shown) [Entry 15], in series [1], the “ee (%)” value is more than 99%.
Take `N[C@@H](Cc1c[nH]c2ccccc12)C(=O)O` [Entry 1, L-tryptophan]: the “activation by A domain” value in series [2] was “preferred substrate”. The “time to complete conversion of L-tryptophan to D-tryptophan” value in series [1] (1 mM L-tryptophan, chiral-HPLC) was determined as 3 h. The “ee (%)” value in series [1] is more than 99%.
`Cc1ccc2c(CC(N)C(=O)O)c[nH]c2c1` (stereo not shown) [Entry 16]: in series [1], the “ee (%)” value was determined as 97%.
As for `CC(C)(CO)[C@@H](O)C(=O)NCCC(=O)NCCSC(=O)[C@H](N)Cc1c[nH]c2ccccc12` [D-Trp-pant, D-tryptophan-S-pantatheine], the “hydrolysis by IvoA-C versus nonenzymatic” value in series [3] is reported as “not good substrate”.
In the case of `NC(Cc1c[nH]c2cc(Br)ccc12)C(=O)O` (stereo not shown) [Entry 11], in series [1], the “conversion by IvoA / substrate quality” value is “poor substrates” and the “ee (%)” value is 75%.
`N#Cc1ccc2[nH]cc(CC(N)C(=O)O)c2c1` (stereo not shown) [Entry 3]: in series [1], the “conversion by IvoA / substrate quality” value is given as “poor substrates” and the “ee (%)” value is 63%.
As to `NC(Cc1c[nH]c2ccc(Cl)cc12)C(=O)O` (stereo not shown) [Entry 8], in series [1], the “ee (%)” value was more than 99%.
For `N[C@H](Cc1c[nH]c2ccccc12)C(=O)O` [D-tryptophan], the “conversion by IvoA / substrate quality” value in series [1] is given as “cannot convert”.
As for `Cc1cccc2[nH]cc(CC(N)C(=O)O)c12` (stereo not shown) [Entry 14], in series [1], the “ee (%)” value is reported as more than 99%.
In the case of `NC(Cc1c[nH]c2ccc(Br)cc12)C(=O)O` (stereo not shown) [Entry 10], the “ee (%)” value in series [1] was more than 99%.
As for `Cc1cccc2c(CC(N)C(=O)O)c[nH]c12` (stereo not shown) [Entry 17], in series [1], the “ee (%)” value is given as more than 99%.
With `NC(Cc1c[nH]c2ccc([N+](=O)[O-])cc12)C(=O)O` (stereo not shown) [Entry 4], in series [1], the “conversion by IvoA / substrate quality” value was “poor substrates” and the “ee (%)” value amounted to 44%.
`NC(Cc1c[nH]c2ccc(F)cc12)C(=O)O` (stereo not shown) [Entry 6]: the “ee (%)” value in series [1] is recorded as more than 99%.
Same read-out and setting: the same measure for `NC(Cc1c[nH]c2cccc(F)c12)C(=O)O` (stereo not shown) [Entry 5]: more than 99%.
On to `CC(=O)NCCSC(=O)C(N)Cc1c[nH]c2ccccc12` (racemic) [DL-Trp-SNAC, DL-tryptophan-S—N-acetylcysteamine], for which, in series [3], the “hydrolysis by IvoA-C versus nonenzymatic” value is given as “not good substrate”.
On to `Cc1[nH]c2ccccc2c1CC(N)C(=O)O` (racemic) [Entry 13, 2-Me-DL-tryptophan], for which the “activation by A domain” value in series [2] is recorded as “inefficient activation”. Besides, in series [1], the “conversion by IvoA / substrate quality” value is recorded as “No conversion” and the “ee (%)” value stood at 1.3%.
What is called Km is the concentration of substrate that gives half-maximal velocity. As to “WT: wild-type single-module nonribosomal peptide synthetase IvoA from Aspergillus nidulans”, in series [4], the “kcat^app” value is 38 ± 3 min⁻¹ and the Km came out at 50 ± 10 µM. Moreover, in series [4] (listed as IvoA), the “kcat^app” value worked out at 38 min⁻¹ and the Km is approximately 50 µM. Further, in series [4] (substrate inhibition by L-tryptophan, read-out: Ki^app (substrate inhibition)), the Ki was 4 mM. Besides, the “kobs^app of N-acetyl-D-tryptophan formation” value in series [5] is less than 0.1 h⁻¹.
Turning to `COc1ccc2[nH]cc(C[C@H](N)C(=O)O)c2c1` [Entry 2, 5-OMe-L-tryptophan], in series [1], the “ee (%)” value is more than 99%.
Consider `NC(Cc1c[nH]c2cc(Cl)ccc12)C(=O)O` (stereo not shown) [Entry 9], for which, in series [1], the “ee (%)” value was found to be 98%.
As to `NC(Cc1c[nH]c2c(Br)cccc12)C(=O)O` (stereo not shown) [Entry 12], in series [1], the “conversion by IvoA / substrate quality” value is “poor substrates” and the “ee (%)” value is recorded as 87%.
In the case of `NC(Cc1c[nH]c2cc(F)ccc12)C(=O)O` (stereo not shown) [Entry 7], in series [1], the “ee (%)” value is listed as more than 99%.

These data come from US20220315967A1, “METHODS FOR PRODUCING D-TRYPTOPHAN AND SUBSTITUTED D-TRYPTOPHANS” (priority 2019, published 2022).
